{"source": "patent US11242340B2", "about": "“Crystal forms of demethyleneberberine hydrochloride and preparation method therefor” (priority 2018, dated 2022)", "key": {"[1]": {"test": "Stability in high-humidity experiment (RH90±5%)", "assay_type": "physicochemical", "description": "Demethyleneberberine hydrochloride crystals A, B, C and D are taken in an appropriate amount and placed in plates numbered as A2, B2, C2 and D2 respectively, and then the plates are placed in a high-humidity environment at RH90±5% respectively for stability test."}, "[2]": {"test": "Solubility in methanol system at different temperatures, HPLC", "assay_type": "physicochemical", "conditions": "FIG. 14, hydrochloride", "quoted_text": "Demethyleneberberine hydrochloride crystals A, B, C and D are taken in an appropriate amount and the solubility of demethyleneberberine hydrochloride crystals A, B, C and D at different temperatures in a methanol system is studied respectively. 20 μl of sample is taken at each temperature node and detected by HPLC."}, "[3]": {"test": "Solubility in water system at different temperatures, HPLC", "assay_type": "physicochemical", "conditions": "hydrochloride", "quoted_text": "Demethyleneberberine hydrochloride crystals A, B, C and D are taken in an appropriate amount and the solubility of demethyleneberberine hydrochloride crystals A, B, C and D at different temperatures in a water system is studied respectively. 20 μl of sample is taken at each temperature node and detected by HPLC."}, "[4]": {"test": "Stability in strong light irradiation experiment (4,500 lx±500 lx)", "assay_type": "physicochemical", "description": "Demethyleneberberine hydrochloride crystals A, B, C and D are taken in an appropriate amount and placed in plates numbered as A3, B3, C3 and D3 respectively, and then the plates are placed in a strong light irradiation environment at 4,500 lx±500 lx respectively for stability test."}, "[5]": {"test": "Stability in high-temperature experiment (60±2° C.)", "assay_type": "physicochemical", "procedure": "Demethyleneberberine hydrochloride crystals A, B, C and D are taken in an appropriate amount and placed in plates numbered as A1, B1, C1 and D1 respectively, and then the plates are placed in a high-temperature environment at 60±2° C. respectively for stability test."}, "[6]": {"test": "Determination of blood concentration in rats after ig administration", "assay_type": "in vivo", "conditions": "male SD rats, ig 200 mg/kg, plasma, hydrochloride", "procedure": "Male SD rats are adaptively bred for 3 days, and rats having (220±20) g body weight are selected and divided into 5 groups, namely, blank group, demethyleneberberine hydrochloride crystal form A group, demethyleneberberine hydrochloride crystal form B group, demethyleneberberine hydrochloride crystal form C group and demethyleneberberine hydrochloride crystal form D group. Food supply is stopped for 12 h for gastric emptying before the experiment. For the rats in the experimental groups, ig (intragastric) administration dosage is 200 mg/kg. 0.2 ml of blood is taken from the orbits of the rats at 5 min., 15 min., 30 min., 1 h, 2 h, 6 h and 12 h respectively after ig administration, the whole blood is centrifuged, and 100 μl of plasma is taken and frozen at −20° C. for use later. 100 μl of plasma sample is taken, 200 μl of methanol is added into the plasma sample, the mixture is vortexed for 5 min., and then centrifuged at 10,000 r/min. for 15 min. in a centrifuge; the supernatant is taken and tested by HPLC. […] Through calculation on the basis of the experimental results, it is determined: DAUC=3.675 μg×ml^−1×h>AAUC=1.247 μg×ml^−1×h>BAUC=1.150 μg×ml^−1×h>CAUC=1.077 μg×ml^−1×h."}, "[7]": {"test": "Solubility in ethanol system at different temperatures, HPLC", "assay_type": "physicochemical", "conditions": "FIG. 15, hydrochloride", "quoted_text": "Demethyleneberberine hydrochloride crystals A, B, C and D are taken in an appropriate amount and the solubility of demethyleneberberine hydrochloride crystals A, B, C and D at different temperatures in an ethanol system is studied respectively. 20 μl of sample is taken at each temperature node and detected by HPLC."}, "[8]": {"conditions": "day 0, listed as D2, hydrochloride"}, "[9]": {"conditions": "day 5, listed as D2, hydrochloride"}, "[10]": {"conditions": "day 10, listed as D2, hydrochloride"}, "[11]": {"conditions": "day 0, listed as D3, hydrochloride"}, "[12]": {"conditions": "day 5, listed as D3, hydrochloride"}, "[13]": {"conditions": "day 10, listed as D3, hydrochloride"}, "[14]": {"conditions": "60±2° C., day 0, listed as D1, hydrochloride"}, "[15]": {"conditions": "60±2° C., day 5, listed as D1, hydrochloride"}, "[16]": {"conditions": "60±2° C., day 10, listed as D1, hydrochloride"}}, "note": "Entries after “also recorded” stand apart in the source; their conditions may differ. Where a name gives a salt, the structure may show the parent alone.", "data": [{"compound": "COc1ccc2cc3[n+](cc2c1OC)CCc1cc(O)c(O)cc1-3", "note": "[crystal form D, demethyleneberberine hydrochloride]", "values": [{"measurement": "Stability in the high-humidity environment", "setting": "[1]", "result": "relatively stable"}, {"measurement": "X-Ray Powder Diffraction", "setting": "[1]; day 0", "result": "Unchanged"}, {"measurement": "Content (%)", "setting": "[1]; [8]", "result": 99.48, "unit": "%"}, {"measurement": "Content of Relevant Substance (%)", "setting": "[1]; [8]", "result": 0.52, "unit": "%"}, {"measurement": "X-Ray Powder Diffraction", "setting": "[1]; day 5", "result": "Unchanged"}, {"measurement": "Content (%)", "setting": "[1]; [9]", "result": 99.41, "unit": "%"}, {"measurement": "Content of Relevant Substance (%)", "setting": "[1]; [9]", "result": 0.59, "unit": "%"}, {"measurement": "X-Ray Powder Diffraction", "setting": "[1]; day 10", "result": "Unchanged"}, {"measurement": "Content (%)", "setting": "[1]; [10]", "result": 99.32, "unit": "%"}, {"measurement": "Content of Relevant Substance (%)", "setting": "[1]; [10]", "result": 0.68, "unit": "%"}, {"measurement": "Solubility ranking among the four crystal forms", "setting": "[2]", "result": "solubility of crystal form A of demethyleneberberine hydrochloride>solubility of crystal form D"}, {"measurement": "Solubility comparison of the four crystal forms (summary)", "setting": "[3]; summary over water, methanol and ethanol systems", "result": "lowest; also recorded: solubility of crystal form A of demethyleneberberine hydrochloride>solubility of crystal form D"}, {"measurement": "Solubility ranking among the four crystal forms", "setting": "[3]; water system, different temperatures, FIG. 13", "result": "solubility of crystal form A of demethyleneberberine hydrochloride>solubility of crystal form D"}, {"measurement": "X-Ray Powder Diffraction", "setting": "[4]; day 0", "result": "Unchanged"}, {"measurement": "Content (%)", "setting": "[4]; [11]", "result": 99.78, "unit": "%"}, {"measurement": "Content of Relevant Substance (%)", "setting": "[4]; [11]", "result": 0.22, "unit": "%"}, {"measurement": "X-Ray Powder Diffraction", "setting": "[4]; day 5", "result": "Unchanged"}, {"measurement": "Content (%)", "setting": "[4]; [12]", "result": 99.58, "unit": "%"}, {"measurement": "Content of Relevant Substance (%)", "setting": "[4]; [12]", "result": 0.42, "unit": "%"}, {"measurement": "Content (%)", "setting": "[4]; [13]", "result": 99.64, "unit": "%"}, {"measurement": "Content of Relevant Substance (%)", "setting": "[4]; [13]", "result": 0.36, "unit": "%"}, {"measurement": "X-Ray Powder Diffraction", "setting": "[4]; [13]", "result": "Changed"}, {"measurement": "Stability in the strong light irradiation environment", "setting": "[4]; hydrochloride", "result": "unstable in the long-term strong light irradiation environment, and undergoes crystal transformation"}, {"measurement": "X-Ray Powder Diffraction", "setting": "[5]; 60±2° C., day 0", "result": "Unchanged"}, {"measurement": "Content (%)", "setting": "[5]; [14]", "result": 99.78, "unit": "%"}, {"measurement": "Content of Relevant Substance (%)", "setting": "[5]; [14]", "result": 0.22, "unit": "%"}, {"measurement": "X-Ray Powder Diffraction", "setting": "[5]; 60±2° C., day 5", "result": "Unchanged"}, {"measurement": "Content (%)", "setting": "[5]; [15]", "result": 99.83, "unit": "%"}, {"measurement": "Content of Relevant Substance (%)", "setting": "[5]; [15]", "result": 0.17, "unit": "%"}, {"measurement": "Content (%)", "setting": "[5]; [16]", "result": 99.71, "unit": "%"}, {"measurement": "Content of Relevant Substance (%)", "setting": "[5]; [16]", "result": 0.29, "unit": "%"}, {"measurement": "X-Ray Powder Diffraction", "setting": "[5]; [16]", "result": "Changed"}, {"measurement": "Stability in the high-temperature environment", "setting": "[5]; 60±2° C., hydrochloride", "result": "unstable in the long-term high-temperature environment, and undergoes crystal transformation"}, {"measurement": "Stability under stability test conditions (summary)", "setting": "[5]; summary over high temperature, high humidity and strong light irradiation, hydrochloride", "result": "tends to have crystal transformation under conditions such as high temperature and strong light irradiation"}, {"measurement": "AUC", "setting": "[6]; calculated from the experimental results", "result": 3675, "unit": "ng·h/mL"}, {"measurement": "Cmax", "setting": "[6]", "result": 1234, "unit": "ng/mL"}, {"measurement": "tmax", "setting": "[6]", "result": 2, "unit": "h"}, {"measurement": "Solubility ranking among the four crystal forms", "setting": "[7]", "result": "solubility of crystal form A of demethyleneberberine hydrochloride>solubility of crystal form D"}]}]}
